Where “and” joins values, the source holds several entries; their conditions need not be identical. Equal values may be shown once.
Legend:
BCL-xL = target: T1, BCL-xL (Homo sapiens, UniProt Q07817); experiment: BCL-xL degradation by immunoblot in 293T cells; format: cell-based; details: for normalized BCL-xL protein content at 1 µM: HEK-293T, 293T, 1 μM 753b, Fig. 3d
T1 construct: endogenous in cells
Method: (§1) The DC50 and Dmax were calculated using Prism based on the ImageJ-quantified western blots in Supplementary Fig. 4. c, d AlphaLISA assay to determine the formation of BCL-xL/PROTAC/VHL-ELOC-ELOB (VCB) (c) or BCL-2/PROTAC/VCB (d) ternary complex in a cell-free condition. Data represent the mean of a single experiment with 2 technical replicates. Similar results were obtained in one more independent experiment. e, f NanoBRET assays evaluating intracellular BCL-xL/PROTAC/VCB (e) or BCL-2/PROTAC/VCB (f) ternary complex formation. […] Data are expressed as mean ± s.e.m. of three biological replicates. Source data are provided as a Source data file.
(§2) Representative immunoblots are shown in (a–d) and β-actin was used as a loading control in all immunoblot analyses. The normalized protein content in the immunoblots is presented as mean values ± s.e.m. (n = 3 biologically independent experiments) in the bar graph (bottom panel). e, f The formation of BCL-xL/PROTAC/VCB (e) and BCL-2/PROTAC/VCB (f) ternary complexes in a cell-free condition was determined by AlphaLISA assay. Data represent the mean of a single experiment with 2 technical replicates. […] Source data are provided as a Source data file.
(§3) Cells were collected, washed once with ice-cold phosphate-buffered saline, pH 7.2 (PBS, cat. no. 20012027; Thermo Fisher Scientific) and lysed in RIPA lysis buffer (Cat. No. BP-115DG, Boston Bio Products, Ashland, MA, USA) supplemented with protease and phosphatase inhibitor cocktails (Cat. No. PPC1010, Sigma-Aldrich, St. Louis, MO, USA) through sonication. The samples were centrifuged at 14,000 r.p.m. for 5 min and the supernatants were transferred into a new tube. The protein concentration in the supernatants was determined using the Pierce BCA protein Assay kit (cat. no. 23225, Thermo Fisher Scientific). The protein concentration was normalized, and the samples were reduced in 4× Laemmli’s SDS-sample buffer (cat. no. BP-110R, Boston Bio Products) and denatured at 95 °C for 5 min. An equal amount of protein samples (20–40 μg per lane) were resolved using precast 4–20% Tris-glycine gels (Mini-PROTEAN TGX, cat. no. 456–1094, Bio-Rad), and resolved proteins were transferred onto 0.2-µm pore size polyvinylidene difluoride (PVDF) blotting membranes (cat. no. LC2002, Thermo Fisher Scientific) using mini trans-blot electrophoretic transfer cell (Bio-Rad). The membranes were blocked with non-fat dry milk (5% wt/vol) in 1× Tris-buffered saline-Tween-20 (TBST, cat. no. J77500, Affymetrix) for 1 h at room temperature, and were subsequently probed with primary antibodies at a predetermined optimal concentration in non-fat dry milk (5% wt/vol in TBST) overnight at 4 °C. The membranes were washed three times (5 min each) in TBST and then incubated with horse radish peroxidase (HRP)-conjugated secondary antibodies for 1 h at room temperature. Following sufficient washing with TBST, the membranes were exposed with chemiluminescent HRP substrate (cat. no. WBKLS0500, MilliporeSigma), and the signal was detected using the ChemiDoc MP Imaging System (Bio-Rad) and quantified using the ImageJ (v1.53a) software from NIH.

[1] = target: T2, BCL-xL/PROTAC/VHL-ELOC-ELOB (VCB) ternary complex (Homo sapiens, UniProt P40337+Q07817); experiment: AlphaLISA ternary complex formation, cell-free, BCL-xL; format: binding; details: for AlphaLISA signal, BCL-xL/PROTAC/VCB: Fig. 3e raw Alpha reads
T2 construct: pGEX-6P-1-VHL(54-213) (pDL2200) was constructed through Gibson assembly method; made in house; host or cells: bacterial culture (LB broth, IPTG induction)
Method: AlphaLISA assay was used to evaluate the in vitro ternary complex formation between target proteins (BCL-xL or BCL-2), PROTAC and E3 ligase (VCB complex). In each well, 5 nM His-tagged BCL-xL or BCL-2 proteins and 5 nM GST-VCB complex was incubated with varying concentrations of compounds in fourfold serial dilutions, to a final volume of 40 µl in a 96-well PCR plate. After incubation at room temperature for 30 min, 5 µl alpha glutathione-donor beads (Cat. No. 6765300, PerkinElmer) were added to each well (20 µg/ml final concentration) and incubated for another 15 min. Thereafter, 5 µL 6× His-acceptor beads were added to each well (20 µg/ml final concentration) and incubated for an additional 45 min at room temperature. Thereafter, 17 µl of each sample was transferred in adjacent wells of a 384-well proxy plate, and the plate was scanned using the Alpha program on Biotek’s Synergy Neo2 multimode plate reader. The data were expressed as average AlphaLISA signal and plotted against different concentrations of compounds using GraphPad Prism 9 software.

BCL-2 = target: T3, BCL-2 (Homo sapiens, UniProt P10415); experiment: BCL-2 degradation by immunoblot in 293T cells; format: cell-based; details: for normalized BCL-2 protein content at 1 µM: HEK-293T, 293T, 1 μM 753b, Fig. 3d
T3 construct: endogenous in cells
Method: as §1, §2, §3

[2] = compound 50000 nM, 2 technical replicates
[3] = time point 1 (unit inferred), time 0 = 100, 3 replicates

T3 sequence (P10415 whole entry): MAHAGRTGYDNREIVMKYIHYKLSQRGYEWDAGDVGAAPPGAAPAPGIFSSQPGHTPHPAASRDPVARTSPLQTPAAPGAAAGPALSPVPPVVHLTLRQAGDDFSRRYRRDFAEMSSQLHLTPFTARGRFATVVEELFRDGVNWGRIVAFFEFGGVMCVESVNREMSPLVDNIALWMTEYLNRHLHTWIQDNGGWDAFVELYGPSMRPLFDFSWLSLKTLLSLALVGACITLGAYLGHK
T2 sequence (Q07817 1-212 limits assumed): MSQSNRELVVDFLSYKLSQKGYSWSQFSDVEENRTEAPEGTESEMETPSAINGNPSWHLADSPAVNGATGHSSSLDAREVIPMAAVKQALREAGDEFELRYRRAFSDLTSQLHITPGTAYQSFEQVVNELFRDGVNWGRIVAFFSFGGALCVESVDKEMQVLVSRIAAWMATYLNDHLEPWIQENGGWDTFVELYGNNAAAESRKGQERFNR
T2 sequence (P40337 54-213 limits assumed): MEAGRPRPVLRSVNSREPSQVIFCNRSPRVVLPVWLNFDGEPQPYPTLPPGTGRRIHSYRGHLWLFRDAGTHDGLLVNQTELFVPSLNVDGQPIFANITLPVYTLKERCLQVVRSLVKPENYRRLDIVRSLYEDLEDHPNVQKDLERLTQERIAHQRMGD
T2 sequence (Q15369 17-112 partner limits assumed): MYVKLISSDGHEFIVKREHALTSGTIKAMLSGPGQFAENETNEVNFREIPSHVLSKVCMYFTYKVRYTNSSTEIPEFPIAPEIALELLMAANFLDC
T2 sequence (Q15370 whole entry partner): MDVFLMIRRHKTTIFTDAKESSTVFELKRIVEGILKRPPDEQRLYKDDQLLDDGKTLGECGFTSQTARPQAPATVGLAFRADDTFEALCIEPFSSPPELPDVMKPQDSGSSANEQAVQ
T1 sequence (Q07817 whole entry): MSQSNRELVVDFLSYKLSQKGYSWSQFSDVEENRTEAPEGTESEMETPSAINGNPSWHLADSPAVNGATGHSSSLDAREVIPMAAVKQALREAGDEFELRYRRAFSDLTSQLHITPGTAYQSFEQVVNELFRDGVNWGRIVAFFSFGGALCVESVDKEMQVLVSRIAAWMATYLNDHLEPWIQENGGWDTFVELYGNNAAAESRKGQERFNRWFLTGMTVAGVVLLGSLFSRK

Row | SMILES | AlphaLISA signal, BCL-xL/PROTAC/VCB ([1]; compound 0.19 nM) | AlphaLISA signal, BCL-xL/PROTAC/VCB ([1]; compound 3.05 nM) | AlphaLISA signal, BCL-xL/PROTAC/VCB ([1]; compound 12.21 nM) | AlphaLISA signal, BCL-xL/PROTAC/VCB ([1]; compound 48.83 nM) | AlphaLISA signal, BCL-xL/PROTAC/VCB ([1]; compound 195.31 nM) | AlphaLISA signal, BCL-xL/PROTAC/VCB ([1]; compound 781.25 nM) | AlphaLISA signal, BCL-xL/PROTAC/VCB ([1]; compound 3125 nM) | AlphaLISA signal, BCL-xL/PROTAC/VCB ([1]; compound 12500 nM) | AlphaLISA signal, BCL-xL/PROTAC/VCB [1, 2] | AlphaLISA signal, BCL-xL/PROTAC/VCB ([1]; compound 0.76 nM) | also measured
1 | Cc1ncsc1-c1ccc([C@H](C)NC(=O)[C@@H]2C[C@@H](O)CN2C(=O)[C@@H](NC(=O)CCCCCCC(=O)N2CCN(C[C@@]3(C)CCC(c4ccc(Cl)cc4)=C(CN4CCN(c5ccc(C(=O)NS(=O)(=O)c6ccc(N[C@H](CCN7CCOCC7)CSc7ccccc7)c(S(=O)(=O)C(F)(F)F)c6)cc5)CC4)C3)CC2)C(C)(C)C)cc1 [753a] | 27453 and 33756 | 365306 and 327240 | 971358 and 937064 | 1567841 and 1437893 | 1256006 and 1243530 | 553159 and 551116 | 187859 and 162857 | 42241 and 44787 | 28218 and 24731 | – | BCL-xL degradation (in words) (BCL-xL; 293T cells, 16 h): could only partially degrade BCL-xL
2 | Cc1ncsc1-c1ccc([C@H](C)NC(=O)[C@@H]2C[C@@H](O)CN2C(=O)[C@@H](NC(=O)CCCCCCC(=O)N2CCN(C[C@]3(C)CCC(c4ccc(Cl)cc4)=C(CN4CCN(c5ccc(C(=O)NS(=O)(=O)c6ccc(N[C@H](CCN7CCOCC7)CSc7ccccc7)c(S(=O)(=O)C(F)(F)F)c6)cc5)CC4)C3)CC2)C(C)(C)C)cc1 [753b] | 52786 and 55133 | 554325 and 621989 | 1164205 and 1155712 | 1828094 and 1838568 | 1687174 and 1602581 | 724516 and 720957 | 238805 and 237649 | 37696 and 47526 | 26805 and 26614 | 140034 and 175918 | DC50 (BCL-2; 293T cells, 16 h, Fig. 3c, read-out: DC50 in degrading BCL-2): 48 nM; normalized BCL-2 protein content at 1 µM (BCL-2; [3]): 99%; normalized BCL-2 protein content at 1 µM (BCL-2; time point 3): 75%; normalized BCL-2 protein content at 1 µM (BCL-2; time point 6): 54%; normalized BCL-2 protein content at 1 µM (BCL-2; time point 12): 18%; normalized BCL-2 protein content at 1 µM (BCL-2; time point 16): 4%; normalized BCL-2 protein content at 1 µM (BCL-2; time point 24): 3%; normalized BCL-2 protein content at 1 µM (BCL-2; time point 36): 2%; DC50 (BCL-xL; 293T cells, 16 h, Fig. 3c, read-out: DC50 in degrading BCL-xL): 6 nM; normalized BCL-xL protein content at 1 µM (BCL-xL; [3]): 77%; normalized BCL-xL protein content at 1 µM (BCL-xL; time point 3): 55%; normalized BCL-xL protein content at 1 µM (BCL-xL; time point 6): 21%; normalized BCL-xL protein content at 1 µM (BCL-xL; time point 12): 13%; normalized BCL-xL protein content at 1 µM (BCL-xL; time point 16): 12%; normalized BCL-xL protein content at 1 µM (BCL-xL; time point 24): 8%; in vitro ternary complex formation with BCL-xL (in words) ([1]; AlphaLISA, cell-free, Fig. 2c, 3e): stronger ternary complexes with BCL-xL/2 than those by 753a and DT2216
3 | CC1(C)CCC(c2ccc(Cl)cc2)=C(CN2CCN(c3ccc(C(=O)NS(=O)(=O)c4ccc(N[C@H](CCN5CCOCC5)CSc5ccccc5)c(S(=O)(=O)C(F)(F)F)c4)cc3)CC2)C1 [ABT263, navitoclax] | 12691 and 9324 | 28316 and 16721 | 27882 and 17689 | – | 22883 and 13939 | 12216 and 14015 | 19424 and 16133 | 17056 and 15505 | 14548 and 12360 | 14711 and 17995 | –
